Values quoted from earlier work, collected in patent US20050255049A1, “Formoterol and mometasone aerosol formulations” (priority 2002, published 2005).

Conditions: stated in the background

C[C@@H]1C[C@H]2[C@@H]3CCC4=CC(=O)C=C[C@]4(C)[C@@]3(Cl)[C@@H](O)C[C@]2(C)[C@@]1(OC(=O)c1ccco1)C(=O)CCl [mometasone furoate, (11 beta, 16alpha)-9,21-dichloro-17-[(2-furanylcarbonyl)oxy]-11-hydroxy-16-methylpregna-1,4-diene-3,20-dione]
density: 1.4 g cm^−3
